Test results reported in patent publication US7696313B2, “Prodrug compounds with isoleucine” (priority 2000, dated 2010).
Like-named read-outs stand apart in the source and are kept apart here.

What was measured:
[1] = Metabolism and clearance in normal mice (plasma and urine, LC MS/MS); type: in vivo
Experimental: The metabolism and clearance of Suc-Ile-Ala-Leu-Dox was studied in normal mice. The mice were administered Suc-Ile-Ala-Leu-Dox at a single intravenous bolus dose of 117 mg/kg. Plasma samples were obtained at 1 and 4 hours. Plasma samples of 100 μl were transferred to Eppendorf tubes (1.5 mL) and an internal standard of daunorubicin (20 μL at 0.5 mg/ml) was added together with acetonitrile (400 μl). The tubes were capped and briefly vortexed followed by centrifugation at 14,000 rpm. 420 μl from each tube was removed and dried in vacuo. Each sample was reconstituted in 65 μl ammonium formate containing acetonitrile (20%) prior to analysis by reverse phase liquid chromatography in combination with tandem mass spectrometry (LC MS/MS).
Urine was collected at 2 and 24 hours post administration from pairs of mice in metabolic cages. Urine samples were diluted with ammonium formate containing acetonitrile (20%) to give a target analyte concentration within the practical range of the LC MS/MS assay. 30 μl of each diluted sample was placed in an Eppendorf tube (1.5 ml) and an internal standard of daunorubicin (20 μL at 0.5 mg/ml) was added together with 50 μl of ammonium formate containing acetonitrile (20%). Each sample was then analyzed by LC MS/MS.
An Agilent HP 1100. HPLC with DAD detector and Chemstation software was coupled to a PE Sciex API 365 mass spectrometer with an electrospray ion source.
HPLC was performed on a TSK-Gel Super ODS, […], 4.6×50 mm (TosoHaas) reversed phase column equipped with a […] C18 guard disc (Higgins Analytical) and stainless steel frit (Upchurch Scientific). Chromatography was performed at room temperature. The flow rate was 0.5 ml/min. Injection volume was 50 μl. Gradient elution was performed using a mobile phase of 20 mM ammonium formate with increasing amounts of acetonitrile. The API 365 was operated at 365° C. in a multiple reaction monitoring mode, set to monitor specific analyte parent-daughter ion pairs. Integration of chromatograms was performed by MacQuan software (PE Sciex) and quantitation of each analyte obtained by comparison to previously obtained calibration curves. Daunorubicin was used as an internal standard in all cases.
Percent of administered dose—plasma volume estimated at 40% of blood volume, which was calculated at 7% of animal's body weight.
Plasma samples were obtained at 1 and 4 hours from separate mice. Urine was collected at 2 and 24 hours post administration from pairs of mice in metabolic cages. The plasma and urine samples were prepared and analyzed as described in Example 4.

[2] = as above; type: in vivo; remark: listed apart in the source
[3] = Repeat-dose tolerance (RD-MTD) in tumor bearing mice; type: in vivo; conditions: mouse, in vivo, corrected results
Experimental: In repeat-dose studies in tumor bearing mice, groups of ten mice were dosed with various amounts of prodrug for a total of five doses at either five day or 1 week intervals.

[4] = Initial single dose Maximum Tolerated Dose (MTD) study, 28 days; type: in vivo, mice; conditions: mouse, in vivo, intravenous
Experimental: In our initial single dose Maximum Tolerated Dose (MTD) study, groups of five normal mice were administered intravenous bolus doses of Suc-Ile-Ala-Leu-Dox. The mice were observed daily for 28 days and body weights measured twice weekly.
The mice were observed daily for 28 days and body weights measured twice weekly.
In the single dose Maximum Tolerated Dose (MTD) studies, groups of normal mice were administered intravenous bolus doses of the prodrug. The mice were observed daily for 28 days and body weights measured twice weekly. The MTD was estimated to be equal to the highest dose that produced no death in mice after 28 days.

[5] = system: carcinoma cell trouase (MCF 7/6 cell homogenate, MCF 7/6 conditioned media, HeLa cell extract anion exchange fraction pool); test: Cleavage assay with carcinoma cell enzyme (trouase) preparations; type: biochemical, human; conditions: under appropriate assay conditions
Experimental: A good candidate for a prodrug with improved therapeutic index is activated by cancer cells but relatively stable in whole human blood. Three different preparations of carcinoma cell trouase were used to screen various test compounds. These three preparations were as follows:
(a) MCF 7/6 (breast carcinoma) cell homogenate
(b) MCF 7/6 (breast carcinoma) conditioned media, and
(c) HeLa (cervical carcinoma) cell extract anion exchange fraction pool.
MCF 7/6 cells were grown to confluence in a serum free medium containing DMEM:F12 (1:1), 50 mg/L bovine serum albumin, ITS-X (10 mg/L insulin, 5.5 mg/L transferrin, 6.7 μg/L Na selenite, 2 mg/L ethanolamine), and Lipid Concentrate (Gibco #21900-030)100 mL of cells were harvested by centrifugation at 4° C. 10,000×g, for 20 min and decanting the supernatant. The pellet was resuspended in 2 mL phosphate buffered saline (Gibco) and centrifuged at 18,000×g for 10 min. […]
A portion of the ultracentrifugation supernatant was diluted 2-fold with a 20 mM triethanolamine-HCl pH 7.2 buffer containing 0.01% (w/v) Triton X-100 and 0.02% (w/v) sodium azide (equilibration buffer). […] Its transformation into Ala-Leu-Dox was quantified by reverse phase high performance liquid chromatography utilizing fluorescence detection of the anthracycline moiety. […]

[6] = after Suc-βAla-Ile-Ala-Leu-Dox 117 mg/kg single intravenous bolus
[7] = after Suc-Ile-Ala-Leu-Dox 117 mg/kg single intravenous bolus

SMILES: COc1cccc2c1C(=O)c1c(O)c3c(c(O)c1C2=O)C[C@@](O)(C(=O)CO)C[C@@H]3O[C@H]1C[C@H](NC(=O)[C@H](CC(C)C)NC(=O)[C@H](C)N)[C@H](O)[C@H](C)O1 [Ala-Leu-Dox]
- Plasma 1 hr, percent of administered dose ([1]; mouse, in vivo): 0.00 % of administered dose
- Plasma 4 hr, percent of administered dose ([1]; mouse, in vivo): 0.00 % of administered dose
- Urine 24 hr, percent of administered dose ([1]; mouse, in vivo): 0.00 % of administered dose

SMILES: COc1cccc2c1C(=O)c1c(O)c3c(c(O)c1C2=O)C[C@@](O)(C(=O)CO)C[C@@H]3O[C@H]1C[C@H](NC(=O)[C@@H](N)CC(C)C)[C@H](O)[C@H](C)O1 [Leu-Dox]
- Plasma 1 hr, percent of administered dose [2, 6]: 0.04 % of administered dose
- Plasma 4 hr, percent of administered dose [2, 6]: 0.00 % of administered dose
- Urine 2 hr, percent of administered dose ([2]; after Suc-βAla-Ile-Ala-Leu-Dox 117 mg/kg, collected 0-2 hours): 4.69 % of administered dose
- Urine 24 hr, percent of administered dose ([2]; after Suc-βAla-Ile-Ala-Leu-Dox 117 mg/kg, collected 2-24 hours): 2.29 % of administered dose
- Plasma 1 hr, percent of administered dose [1, 7]: 0.02 % of administered dose
- Plasma 4 hr, percent of administered dose [1, 7]: 0.00 % of administered dose
- Urine 2 hr, percent of administered dose ([1]; after Suc-Ile-Ala-Leu-Dox 117 mg/kg, collected 0-2 hours): 1.17 % of administered dose
- Urine 24 hr, percent of administered dose ([1]; after Suc-Ile-Ala-Leu-Dox 117 mg/kg, collected 2-24 hours): 2.25 % of administered dose

SMILES: COc1cccc2c1C(=O)c1c(O)c3c(c(O)c1C2=O)C[C@@](O)(C(=O)CO)C[C@@H]3O[C@H]1C[C@H](NC(=O)[C@H](CC(C)C)NC(=O)[C@H](C)NC(=O)[C@H](CC(C)C)NC(=O)CCC(=O)O)[C@H](O)[C@H](C)O1 [Suc-Leu-Ala-Leu-Dox, reference compound]
- MTD at 60 days ([3]; Repeat Dose MTD, doxorubicin equivalent dose, Table 8, value in parentheses): 31 mg/kg
- MTD at 60 days ([3]; Q 5D × 5 or Q 7D × 5, read-out: Repeat Dose MTD (mg/kg), Table 8): 52 mg/kg
- Major Plasma Metabolite, Table 7 (mouse, in vivo): Leu-Dox
- Major Plasma Metabolite, Table 8 (mouse, in vivo): Leu-Dox
- MTD at 28 days ([4]; 28 days, uncorrected doses, read-out: SD MTD (mg/kg), Table 7): > 117 mg/kg
- MTD at 28 days ([4]; SD MTD, doxorubicin equivalent dose, Table 8, value in parentheses, corrected results): 35 mg/kg
- MTD at 28 days ([4]; SD MTD, molar equivalent dose of doxorubicin, Table 7, value in parentheses, uncorrected): > 70 mg/kg
- MTD at 28 days ([4]; corrected results, read-out: SD MTD (mg/kg), Table 8): 59 mg/kg

SMILES: COc1cccc2c1C(=O)c1c(O)c3c(c(O)c1C2=O)C[C@@](O)(C(=O)CO)C[C@@H]3O[C@H]1C[C@H](NC(=O)[C@H](CC(C)C)NC(=O)[C@H](C)NC(=O)[C@H](CC(C)C)NC(=O)CCNC(=O)CCC(=O)O)[C@H](O)[C@H](C)O1 [Suc-βAla-Leu-Ala-Leu-Dox, reference compound]
- Major Plasma Metabolite, Table 7 (mice): Ala-Leu-Dox
- Major Plasma Metabolite, Table 8 (mice): Ala-Leu-Dox

SMILES: CC[C@H](C)[C@H](NC(=O)CCNC(=O)CCC(=O)O)C(=O)N[C@@H](C)C(=O)N[C@@H](CC(C)C)C(=O)N[C@H]1C[C@H](O[C@H]2C[C@](O)(C(C)=O)Cc3c(O)c4c(c(O)c32)C(=O)c2c(OC)cccc2C4=O)O[C@@H](C)[C@H]1O [succinyl-βAla-Ile-Ala-Leu-Daunorubicin]
- cleavage activity of trouase [5]: at least twenty-fold less active

SMILES: COc1cccc2c1C(=O)c1c(O)c3c(c(O)c1C2=O)C[C@@](O)(C(C)=O)C[C@@H]3O[C@H]1C[C@H](NC(=O)[C@H](CC(C)C)NC(=O)[C@H](C)NC(=O)[C@H](CC(C)C)NC(=O)CCNC(=O)CCC(=O)O)[C@H](O)[C@H](C)O1 [succinyl-βAla-Leu-Ala-Leu-Daunorubicin, reference compound]
- cleavage activity of trouase [5]: readily cleaves
